Here are results for one compound from patent publication EP0490590A1, “New benzodiazepine analogs” (MERCK & CO. INC., priority 1990, dated 1992).

For orientation: IC50 means the concentration at which inhibition is half-maximal. Low values mean greater potency in that assay, high ones weaker potency in that assay.

Assay [1] addresses T1, CCK receptor (pancreas) (Rattus norvegicus, UniProt P30551).
T1 construct: The whole pancreas was dissected free of fat tissue and was homogenized; from tissue; host or cells: rat whole pancreas membrane homogenate
T1 sequence (P30551 1-444): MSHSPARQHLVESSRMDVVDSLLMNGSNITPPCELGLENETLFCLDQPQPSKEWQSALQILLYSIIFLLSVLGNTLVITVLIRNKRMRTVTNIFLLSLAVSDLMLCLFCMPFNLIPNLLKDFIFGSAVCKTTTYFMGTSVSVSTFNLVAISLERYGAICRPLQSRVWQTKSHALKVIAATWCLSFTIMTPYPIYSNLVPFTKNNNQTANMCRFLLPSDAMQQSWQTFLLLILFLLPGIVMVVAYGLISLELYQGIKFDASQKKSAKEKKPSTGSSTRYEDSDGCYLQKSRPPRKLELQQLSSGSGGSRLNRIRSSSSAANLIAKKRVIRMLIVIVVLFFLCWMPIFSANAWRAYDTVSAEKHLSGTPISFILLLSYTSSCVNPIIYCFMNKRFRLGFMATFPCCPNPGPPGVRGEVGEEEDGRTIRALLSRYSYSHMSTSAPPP
The assay is described as follows: CCK Receptor Binding (Pancreas), 125I-CCK-33. The following applies: inhibition of 125I-CCK-33 binding, rat pancreas membranes, 37°C, 30 minutes. On the procedure: 1. CCK Receptor Binding (Pancreas)
CCK-33 was radiolabeled with ¹²⁵I-Bolton Hunter reagent (2000 Ci/mmole) as described by Sankara et al. (J. Biol. Chem. 254: 9349-9351, 1979). Receptor binding was performed according to Innis and Snyder (Proc. Natl. Acad. Sci. 77, 6917-6921, 1980) with the minor modification of adding the additional protease inhibitors, phenylmethane sulfonyl fluoride and o-phenanthroline. The latter two compounds have no effect on the ¹²⁵I-CCK receptor binding assay.
Male Sprague-Dawley rats (200-350g) were sacrificed by decapitation. The whole pancreas was dissected free of fat tissue and was homogenized in 20 volumes of ice-cold 50 mM, Tris HCl (pH 7.7 at 25°C) with a Brinkmann Polytron PT 10. The homogenates were centrifuged at 48,000 g for 10 min. Pellets were resuspended in Tris Buffer, centrifuged as above and resuspended in 200 volumes of binding assay buffer (50 mM Tris HCl, pH 7.7 at 25°C, 5 mM dithiothrietol, 0.1 mM bacitracin, 1.2 mM phenylmethane sulfonyl fluoride and 0.5 mM o-phenanthroline). […] The supernatant was aspirated and discarded, pellets were counted with a Beckman gamma 5000. […]

In assay [2] the target is T2, CCK receptor (brain, cerebral cortex) (Cavia porcellus, UniProt H0VZC5).
T2 construct: Cerebral cortex was dissected and used as a receptor source; from tissue; host or cells: guinea pig cerebral cortex membranes
Briefly: CCK Receptor Binding (Brain), 125I-CCK-33. Particulars: inhibition of 125I-CCK-33 binding, guinea pig cerebral cortex membranes, 25°C, 2 hours. On the procedure: 2. CCK Receptor Binding (Brain)
CCK-33 was radiolabeled and the binding was performed according to the description for the pancreas method with modifications according to Saito et al., J. Neurochem. 37:483-490, 1981.
Male Hartley guinea pigs (300-500g) were sacrificed by decapitation and the brains were removed and placed in ice-cold 50 mM, Tris HCl plus 7.58 g/l Trizma-7.4 (ph 7.4 at 25°C). Cerebral cortex was dissected and used as a receptor source. Each gram of fresh guinea pig brain tissue was homogenized in 10 ml of Tris/Trizma buffer with a Brinkman polytron PT-10. The homogenates were centrifuged at 42,000 g for 15 minutes. Pellets were resuspended in Tris Buffer, centrifuged as above and resuspended in 200 volumes of binding assay buffer (10 mM N-2-hydroxyethyl-piperazine-N′-2-ethane sulfonic acid (HEPES), 5 mM MgCl₂, 0.25 mg/ml bacitracin, 1 mM ethylene glycol-bis-(β-aminoethylether-N,N′-tetraacetic acid) (EGTA), and 0.4% bovine serum albumin (BSA)). […] The supernatant was aspirated and discarded, pellets were counted with a Beckman gamma 5000.

T2 sequence (H0VZC5 entry or part of it): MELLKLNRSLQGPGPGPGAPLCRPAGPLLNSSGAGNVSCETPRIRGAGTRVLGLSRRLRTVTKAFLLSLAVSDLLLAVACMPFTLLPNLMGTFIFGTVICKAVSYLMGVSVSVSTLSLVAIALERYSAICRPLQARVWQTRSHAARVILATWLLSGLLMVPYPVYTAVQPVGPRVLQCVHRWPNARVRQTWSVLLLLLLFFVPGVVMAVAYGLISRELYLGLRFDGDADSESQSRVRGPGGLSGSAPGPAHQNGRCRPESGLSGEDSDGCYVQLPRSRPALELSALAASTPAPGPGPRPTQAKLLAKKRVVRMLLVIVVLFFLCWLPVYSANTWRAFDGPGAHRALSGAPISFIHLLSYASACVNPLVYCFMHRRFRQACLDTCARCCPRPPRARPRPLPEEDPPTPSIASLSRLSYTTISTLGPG

With `CN1C(=O)C(NC(=O)c2cc3cc(O)ccc3[nH]2)N=C(c2ccccc2)c2ccccc21` (centres unmarked) [Example 15, 1,3-Dihydro-3-(5-hydroxyindole-2-carbonylamino)-1-methyl-5-phenyl-2H-1,4-benzodiazepin-2-one], the values for the concentration for half-maximal inhibition (IC50) in assay [1] and in assay [2] were 0.0033 µM and 0.91 µM, respectively.
